Data published in patent publication US20070172422A1, “Exponential pattern recognition based cellular targeting compositions, methods and anticancer applications” (priority 2001, published 2007).

Columns and labels:
PSMA = PSMA (Homo sapiens, UniProt Q04609); test: inhibition of the enzymatic activity of PSMA; format: biochemical
Protocol: The ability of Compound 8 to inhibit the enzymatic activity of PSMA (and consequently to bind to the enzyme) was evaluated using the method described previously in Ser. No. 09/712,465 Nov. 15, 2000 Glazier, Arnold. “Selective Cellular Targeting: Multifunctional Delivery Vehicles, Multifunctional Prodrugs, Use as Neoplastic Drugs. The IC50 for Compound 8 was 8 nanomolar.

[1] = times more potent than doxorubicin; cited from earlier work
[2] = tested on: cells including adriamycin resistant tumor lines; settings: cited from earlier work

Chain of PSMA (Q04609 whole entry, species assumed): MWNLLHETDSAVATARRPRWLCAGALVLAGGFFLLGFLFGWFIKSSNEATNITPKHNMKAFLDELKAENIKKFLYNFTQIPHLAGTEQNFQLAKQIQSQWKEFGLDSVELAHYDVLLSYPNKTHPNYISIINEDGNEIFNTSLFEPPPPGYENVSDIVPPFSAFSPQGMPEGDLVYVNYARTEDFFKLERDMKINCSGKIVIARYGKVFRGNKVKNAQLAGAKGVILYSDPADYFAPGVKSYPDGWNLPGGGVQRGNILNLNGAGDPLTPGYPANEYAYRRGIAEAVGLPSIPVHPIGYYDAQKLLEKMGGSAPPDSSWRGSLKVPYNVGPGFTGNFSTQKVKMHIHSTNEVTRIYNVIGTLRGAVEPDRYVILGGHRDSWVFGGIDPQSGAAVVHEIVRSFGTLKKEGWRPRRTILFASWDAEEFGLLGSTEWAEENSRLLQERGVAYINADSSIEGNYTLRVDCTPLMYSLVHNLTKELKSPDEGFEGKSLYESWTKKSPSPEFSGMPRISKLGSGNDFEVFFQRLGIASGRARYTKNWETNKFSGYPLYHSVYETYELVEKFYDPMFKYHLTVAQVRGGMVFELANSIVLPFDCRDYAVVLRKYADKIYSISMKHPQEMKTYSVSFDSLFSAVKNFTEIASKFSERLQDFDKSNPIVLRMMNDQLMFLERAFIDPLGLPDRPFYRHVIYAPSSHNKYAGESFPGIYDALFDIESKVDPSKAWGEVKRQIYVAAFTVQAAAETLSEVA

Structure (SMILES): COc1ccc(C(=O)NCCOCCOCCOCCNC(=O)CCC(NC(=O)NC(CCC(=O)O)C(=O)O)C(=O)O)cc1 (stereo not drawn) [Compound 8]
- IC50 (PSMA): 8 nM

Structure (SMILES): COc1cccc2c1C(=O)c1c(O)c3c(c(O)c1C2=O)C[C@@](O)(C(=O)CO)C[C@@H]3O[C@H]1C[C@H](N2C=CCC2)[C@H](O)[C@H](C)O1 [2-pyrrolinodoxorubicin]
- potency relative to doxorubicin [1]: 500-1000 times

Structure (SMILES): CO[C@@H]1[C@H](O)C[C@@H](O[C@@H]2C[C@H](Oc3cc4cc5c(c(O)c4c(O)c3C)C(=O)[C@@H](O[C@H]3C[C@@H](O[C@H]4C[C@@H](O[C@H]6C[C@](C)(O)[C@@H](OC(C)=O)[C@H](C)O6)[C@H](O)[C@@H](C)O4)[C@H](O)[C@@H](C)O3)[C@H]([C@H](OC)C(=O)[C@@H](O)[C@@H](C)O)C5)O[C@H](C)[C@@H]2OC(C)=O)O[C@@H]1C [Chromomycin A3]
- concentrations at which cytotoxic [2]: subnanomolar concentrations
